For 15 molecules, inhibition and Ki results are on record in patent US20070270436A1, “NOVEL AMINO- AND IMINO-ALKYLPIPERAZINES” (Recordati Ireland Limited, priority 2006, published 2007).

The target in one experiment is T1, 5-HT1A receptors (Rattus norvegicus, UniProt P19327).
T1 construct: from tissue; host or cells: living male Sprague-Dawley rats (whole animal, behavioural read-out)
T1 sequence (P19327 1-422): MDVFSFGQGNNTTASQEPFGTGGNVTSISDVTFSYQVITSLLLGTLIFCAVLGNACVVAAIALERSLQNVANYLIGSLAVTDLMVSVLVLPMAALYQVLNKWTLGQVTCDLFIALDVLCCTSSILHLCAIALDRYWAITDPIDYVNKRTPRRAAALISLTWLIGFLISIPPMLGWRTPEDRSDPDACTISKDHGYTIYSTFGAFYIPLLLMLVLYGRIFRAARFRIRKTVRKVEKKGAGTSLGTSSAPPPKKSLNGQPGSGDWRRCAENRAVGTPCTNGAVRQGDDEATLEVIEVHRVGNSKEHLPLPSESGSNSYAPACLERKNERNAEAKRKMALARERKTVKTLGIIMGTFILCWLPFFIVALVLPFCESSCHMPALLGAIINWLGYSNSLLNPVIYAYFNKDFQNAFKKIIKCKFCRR
The experiment is described as follows: Inhibition of serotonergic syndrome (forepaw treading) induced by 8-OH-DPAT in rats (post-synaptic antagonism). Format: in vivo. To be noted: rat, 10 mg/kg p.o. The method, then: The inhibitory effect of 5-HT1A-receptor antagonists on stereotyped forepaw treading induced in rats by subcutaneous injection of 8-OH-DPAT was evaluated by the method of Tricklebank (Tricklebank et al., Eur. J. Pharmacol., 117: 15, 1985) with minor modifications as described below.
Male Sprague-Dawley rats [Crl: CD® (SD) IGS BR] weighing 150-175 g from Charles River Italia were used. The animals were housed with free access to food and water and maintained on a forced 12-hour-light/12-hour-dark cycle at 22-24° C. of temperature. On the day of the experiment, the rats were placed singly in clear plastic containers, 10-15 minutes before oral administration of the vehicle or compounds to be tested. For evaluation of antagonistic activity, the compounds were administered 1 and 4 hours before induction of stereotypy by 8-OH-DPAT (1 mg/kg subcutaneously). Observation sessions lasted 30 seconds and began 3 minutes after 8-OH-DPAT treatment and were repeated every 3 minutes over a period of 15 minutes.
The appearance of the symptoms induced by postsynaptic stimulation of 5-HT1A receptors was noted, and the intensity was scored using an intensity scale in which: 0=absent, 1=equivocal, 2=present and 3=intense. Behavioural scores for treated rats were accumulated throughout the observation time (5 observation periods) and expressed as mean values of 4 rats/dose. Change in mean values of treated animals in comparison with control (vehicle) group, expressed as per-cent inhibition, was used to quantify the antagonistic activity.
In order to quantitate the potency of the compound of Example 24 in inhibiting the stereotypy (forepaw treading) induced by 8-OH-DPAT, an ED50 value (dose inhibiting by 50% the forepaw treading) was evaluated by means of linear regression using the least square method.

The target of experiment [1] is T2, human 5HT1A-serotonergic receptor (Homo sapiens, UniProt P08908).
T2 construct: expressed in transfected cells; host or cells: HeLa (human), stably transfected; membranes
T2 sequence (P08908 1-422): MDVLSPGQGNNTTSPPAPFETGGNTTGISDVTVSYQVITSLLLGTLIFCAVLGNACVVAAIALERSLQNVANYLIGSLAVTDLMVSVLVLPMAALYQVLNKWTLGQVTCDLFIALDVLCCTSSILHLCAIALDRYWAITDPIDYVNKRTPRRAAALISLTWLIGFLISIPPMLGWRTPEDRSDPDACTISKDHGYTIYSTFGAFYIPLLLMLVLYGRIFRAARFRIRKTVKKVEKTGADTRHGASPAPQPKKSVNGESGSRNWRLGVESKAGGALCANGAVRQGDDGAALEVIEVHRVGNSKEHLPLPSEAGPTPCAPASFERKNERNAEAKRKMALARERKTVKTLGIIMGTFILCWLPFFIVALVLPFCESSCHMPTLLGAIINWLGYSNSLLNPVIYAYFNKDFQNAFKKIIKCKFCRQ
In words: Radioligand binding to recombinant 5-HT1A receptor ([3H]8-OH-DPAT, HeLa cell membranes). The conditions noted are these: 1 nM [3H]8-OH-DPAT; Ki from IC50 by the Cheng equation; read-out: Ki (nM), binding affinity for 5HT1A receptor. As to the method: Genomic clone G-21 encoding the human 5HT1A-serotonergic receptor was stably transfected in a human cell line (HeLa). HeLa cells were grown as monolayers in Dulbecco's modified Eagle medium (DMEM), containing 10% fetal bovine serum and gentamycin (100 μg/ml) at 37° C. in a humidified atmosphere of 5% CO2 and air. The cells were detached from the growth flask at 95% confluence by a cell scraper and were lysed in cold 5 mM Tris and 5 mM EDTA buffer (pH 7.4). The homogenates were centrifuged at 40000×g×20 minutes and the pellets were resuspended in a small volume of cold 5 mM Tris and 5 mM EDTA buffer (pH 7.4) and immediately frozen and stored at −70° C. until use. On the day of experiment, the cell membranes were resuspended in incubation buffer: 50 mM Tris (pH 7.4), 2.5 mM MgCl2, 10 μM pargyline (Fargin et al., Nature 335, 358-360, 1988). The membranes were incubated in a final volume of 0.32 ml for 30 minutes at 30° C. with 1 nM [^3H]8-OH-DPAT, in the absence or presence of the test compounds. Non-specific binding was determined in the presence of 10 μM 5-HT. Incubation was stopped by addition of cold Tris buffer and rapid filtration through UniFilter GF/C plate.
The affinity of the tested compounds was evaluated as inhibition of specific binding of the radioligand to 5-HT1A receptor (IC50) by using the non-linear curve-fitting program Allfit (De Lean et al., Am. J. Physiol. 235, E97-E102 (1978)). The IC50 value was converted to an affinity constant (Ki) by the equation of Cheng et al., Biochem. Pharmacol. 22, 3099-3108 (1973).

The mark [2] stands for this setting: 1 h before 8-OH-DPAT 1 mg/kg s.c., read-out: % Inhibition of forepaw treading, 1 h.
[3] abbreviates: 4 h before 8-OH-DPAT 1 mg/kg s.c., read-out: % Inhibition of forepaw treading, 4 h.

Where two headings read alike, the source gives them in different places.

Regarding `COc1ccccc1N1CCN(CCC(C(=NO)C2CCCCC2)c2ccccc2F)CC1` (mixture of isomers) [Example 1, 1-Cyclohexyl-2-(2-fluorophenyl)-4-[4-(2-methoxyphenyl)-piperazin-1-yl]butan-1-one oxime], on 5-HT1A receptors (setting [2]), the inhibition (as a rule, how much of the control response was suppressed) at 10 mg/kg is 71%. Moreover, the Ki (commonly a dissociation constant, usually derived from enzyme kinetics or from competition with a known ligand) in experiment [1] worked out at 0.16 nM.

`CONC(C1CCCCC1)C(CCN1CCN(c2ccccc2OC)CC1)c1ccccc1F` (mixture of isomers) [Example 4, N-{1-Cyclohexyl-2-(2-fluorophenyl)-4-[4-(2-methoxyphenyl)piperazin-1-yl]butyl}-O-methylhydroxylamine]: the inhibition at 10 mg/kg was 86% at 5-HT1A receptors (setting [2]) and 68% on 5-HT1A receptors (setting [3]). In experiment [1], the Ki was 0.88 nM. As for `CON[C@H](C1CCCCC1)[C@H](CCN1CCN(c2ccccc2OC)CC1)c1ccccc1F` (racemic) [Example 4b, (RS,RS)-N-{1-Cyclohexyl-2-(2-fluorophenyl)-4-[4-(2-methoxyphenyl)piperazin-1-yl]butyl}-O-methylhydroxylamine], the inhibition at 10 mg/kg on 5-HT1A receptors (setting [2]) turned out to be 71%; on 5-HT1A receptors (setting [3]), 67%. Take `COc1ccccc1N1CCN(CC[C@@H](c2ccccc2F)[C@@H](C2CCCCC2)N(C)C)CC1` (racemic) [Example 11, {(RS,SR)-1-Cyclohexyl-2-(2-fluorophenyl)-4-[4-(2-methoxyphenyl)-piperazin-1-yl]butyl}dimethylamine]: the inhibition at 10 mg/kg at 5-HT1A receptors (setting [2]) and at 5-HT1A receptors (setting [3]) was 56% in each case. Besides, in experiment [1], the Ki came to 1 nM.

For the molecule `COc1ccccc1N1CCN(CC[C@@H](c2ccccc2F)[C@H](NC(=O)N(C)C)C2CCCCC2)CC1` (racemic) [Example 21, 3-{(RS,SR)-1-Cyclohexyl-2-(2-fluorophenyl)-4-[4-(2-methoxyphenyl)-piperazin-1-yl]butyl}-1,1-dimethylurea], the inhibition at 10 mg/kg at 5-HT1A receptors (setting [2]) is 94%; at 5-HT1A receptors (setting [3]) it was 65%. For the same molecule, the Ki in experiment [1] was found to be 2.1 nM. With `O=CNC(C1CCCCC1)C(CCN1CCN(c2cccc3c2OCCO3)CC1)c1ccccc1F` (centres unmarked) [Example 37, N-[1-Cyclohexyl-4-[4-(2,3-dihydrobenzo[1,4]dioxin-5-yl)piperazin-1-yl]-2-(2-fluorophenyl)butyl]formamide], the Ki in experiment [1] was found to be 0.8 nM. Still for that read-out and setting: to `CNC(C1CCCCC1)C(CCN1CCN(c2cccc3c2OCCO3)CC1)c1ccccc1F` (centres unmarked) [Example 39, 1-Cyclohexyl-4-[4-(2,3-dihydrobenzo[1,4]dioxin-5-yl)piperazin-1-yl]-2-(2-fluorophenyl)butylmethylamine] belongs 0.3 nM; to `COc1ccc(Br)c(CN2CCN(CCC(c3ccccc3F)C(NC=O)C3CCCCC3)CC2)c1` (centres unmarked) [Example 42, N-[4-[4-(2-Bromo-5-methoxybenzyl)piperazin-1-yl]-1-cyclohexyl-2-(2-fluorophenyl)butyl]formamide], 0.5 nM; to `COc1ccc(Br)c(CN2CCN(CCC(c3ccccc3F)C(N)C3CCCCC3)CC2)c1` (centres unmarked) [Example 43, 4-[4-(2-Bromo-5-methoxybenzyl)piperazin-1-yl]-1-cyclohexyl-2-(2-fluorophenyl)butylamine], 0.3 nM. For the molecule `CNC(C1CCCCC1)C(CCN1CCN(Cc2cc(OC)ccc2Br)CC1)c1ccccc1F` (centres unmarked) [Example 44, 4-[4-(2-Bromo-5-methoxybenzyl)piperazin-1-yl]-1-cyclohexyl-2-(2-fluorophenyl)butylmethylamine], in experiment [1], the Ki turned out to be 0.4 nM.

Consider `COc1ccc(Br)c(CN2CCN(CCC(c3ccccc3F)C(NC(C)=O)C3CCCCC3)CC2)c1` (centres unmarked) [Example 45, N-[4-[4-(2-Bromo-5-methoxybenzyl)piperazin-1-yl]-1-cyclohexyl-2-(2-fluoro-phenyl)butyl]acetamide], for which, in experiment [1], the Ki worked out at 1.1 nM. On to `COc1ccc(Br)c(CN2CCN(CCC(c3ccccc3F)C(C3CCCCC3)N(C)C(C)=O)CC2)c1` (centres unmarked) [Example 46, N-[4-[4-(2-Bromo-5-methoxybenzyl)piperazin-1-yl]-1-cyclohexyl-2-(2-fluorophenyl)butyl]-N-methylacetamide], for which, in experiment [1], the Ki amounted to 0.8 nM. On to `O=CNC(C1CCCCC1)C(CCN1CCN(c2cccc3[nH]cnc23)CC1)c1ccccc1F` (centres unmarked) [Example 47, N-[4-[4-(1H-Benzimidazol-4-yl)piperazin-1-yl]-1-cyclohexyl-2-(2-fluoro-phenyl)butyl]formamide], for which the Ki in experiment [1] was determined as 0.8 nM.

With `NC(C1CCCCC1)C(CCN1CCN(c2cccc3[nH]cnc23)CC1)c1ccccc1F` (centres unmarked) [Example 48, 4-[4-(1H-Benzimidazol-4-yl)piperazin-1-yl]-1-cyclohexyl-2-(2-fluorophenyl)butylamine], the Ki in experiment [1] amounted to 0.3 nM.

Consider `O=CNC(C1CCCCC1)C(CCN1CCN(c2cccc3[nH]ccc23)CC1)c1ccccc1F` (centres unmarked) [Example 52, N-{1-Cyclohexyl-2-(2-fluorophenyl)-4-[4-(1H-indol-4-yl)piperazin-1-yl]butyl}formamide], for which, in experiment [1], the Ki worked out at 2.3 nM.
